Reference: patent US20200009118A1, “COMPOSITIONS AND METHODS FOR THE TREATMENTOF NEURODEGENERATIVE AND OTHER DISEASES” (Glialogix, Inc., priority 2017, published 2020)

Assays:
[1] = system: SOD1^G93A transgenic mice; test: Survival study in the SOD1 mouse model of ALS; assay type: in vivo; details: for Observed Days, Total Days: whole cohort
Experimental: High-copy SOD1^G93A transgenic mice were derived from the B6SJL-TgN(SOD1G93A)1Gur strain, obtained from The Jackson Laboratory (Bar Harbor, Me.) and originally produced by Gurney, e.g. Gurney et al., Science 264: 1772-1775 (1994). Animal experiments with the SOD1 model were performed at ALS Therapy Development Institute (herein “ALS-TDI”; Cambridge, Mass.). All mice were genotyped to verify copy number of the SOD1 transgene. Animal handling and study protocols were as previously described by ALS-TDI, e.g. Scott et al., Amyotroph. Lateral Scler. 9: 4-15 (2008).
Groups were balanced with respect to gender and body weight within gender. In addition, groups were age-matched and littermate-matched. […] Each cohort of was balanced between males and females.
5 mL of 0.1 N NaOH was added and the tube gently sonicated. Approximately 140 μL of 1 N HCl was then added to bring the pH to 8.00. The resulting 20 mg/mL solution was delivered by intraperitoneal injection at 10 ml/kg. Vehicle treated mice were administered saline.
Neurological scores were assessed daily from day 50 for both hind legs. The neurological score was based on a scale of 0 to 4. Criteria used to assign each score level are from Scott et al., Amyotroph. Lateral Scler. 9: 4-15 (2008) and are described in Table 2.
The date of definitive neurological disease was the day that the mouse first scored a “2” on the Neurological Score. Upon reaching a score of Neurological Score of “4”, mice were euthanized and the date of death was recorded.
Survival after onset of definitive neurological disease is defined as the total number of days the mice lived after reaching definitive neurological disease (Neurological Score of 2) and before death (Neurological Score of 4). Survival after onset of definitive neurological disease was analyzed in two ways.
The first day that a neurological score was determined was day 50 of age; measurements were collected daily afterwards until death.
The three categories were: (1) days spent before definitive neurological disease, e.g. with a neurological score of 0 or 1; (2) days spent during definitive neurological disease, e.g. with a neurological score of 2 or 3; and (3) days at death, e.g. with a neurological score of 4. By definition, mice were only in the dead state for 1 day, as they were euthanized upon reaching a neurological score of 4; this category was included as a positive control to ensure the integrity of the data and analysis.

[2] = system: activated microglial cells; test: Microglial activation (anti-F4/80 area fraction) in spinal cord ventral horn of SOD1 mice; assay type: in vivo, mouse; details: Microglia
Excerpt: The same test mice, spinal cord preparations and methods of analysis used in the neuroinflammatory study were identical to those used in the xCT quantitation study. Two neuroinflammatory cell populations were quantitated: (1) activated microglial cells using an antibody to the F4/80 antigen, and (2) activated astrocytes, using an antibody to the GFAP antigen. For each objective image, light parameters were optimized and kept consistent across all sections. Images that were captured at 20× were then imported into ImageJ freeware (NIH, Bethesda, Md.). A maximum entropy threshold algorithm was applied to all images in a completely blinded fashion to filter out all pixels that were not stained as DAB positive. 20× images were analyzed in a blinded fashion and mean area fraction occupied by stain was tabulated. Levels of neuroinflammation in the spinal cord were assessed by measuring the area fraction of the area of the ventral horn in the spinal cord occupied by activated astrocytes or microglia. Area fraction was compared with respect to treatment using 1-way ANOVA analysis, with a p-value of 0.05 considered significant.
For quantitation of microglial activation, samples were pretreated with Pronase for 20 minutes at RT, followed by treatment with 3% H2O2 for 12 minutes at RT (25° C.). Goat serum was added to 2% and samples incubated for 20 minutes at RT. The samples were then incubated with the primary antibody (Anti-F4/80) purchased from Serotec (Catalog # MCA497R; Oxford, United Kingdom), diluted 1:250 in PBS overnight at 4° C. The secondary antibody (Biotin labeled […]; 1:250 dilution in PBS) was then added and the reaction incubated 1 hour at RT. Reaction products were developed using the Vector ABC system (Vector Labs, Burlingame, Calif.) using avidin-conjugated horseradish peroxidase (45 minutes at RT). Activated microglia were visualized by addition of the chromogenic substrate DAB (3,3′-diaminobenzidine) for 6 minutes at RT.

[3] = 2 g oral dose, people with ABCG2 genotype 421C/C; cited from earlier work
[4] = system: multiple sclerosis patients; details: 2 grams per day, cited from earlier work
[5] = 200 mg/kg IP two times per day from age 50 days
[6] = Before definitive disease onset (neurological score = 0 or 1)
[7] = Definitive neurological disease (neurological score = 2 or 3)

O=C(O)c1cc(/N=N/c2ccc(S(=O)(=O)Nc3ccccn3)cc2)ccc1O [Sulfasalazine, 2-hydroxy-5-[(E)-2-{4-[(pyridin-2-yl)sulfamoyl]phenyl}diazen-1-yl]benzoic acid]
Mean Day of Death ([1]; 200 mg/kg IP two times per day): 132.6 | Mean Day of Definitive Neurological Disease ([1]; 200 mg/kg IP two times per day): 115.2 | Total Days of Survival after Onset of Definitive Disease ([1]; 200 mg/kg IP two times per day): 17.4 days | increase in median absolute survival [1, 5]: 3.5 days | increased absolute lifespan [1, 5]: 2.7% | time of disease onset [1, 5]: no statistical effect | increase in median absolute survival ([1]; 200 mg/kg IP two times per day from age 50 days, listed as sulfasalazine formulation): 3.7 days | effect on absolute survival, greater than riluzole ([1]; 2.7% vs. […] increased absolute lifespan): 68% | Observed Days Minus Expected Days [1, 6]: -14 days | Observed Days, Total Days [1, 6]: 1708 days | Observed Days Minus Expected Days ([1]; Death (neurological score = 4)): 0 days | Observed Days, Total Days ([1]; Death (neurological score = 4)): 27 days | Observed Days Minus Expected Days [1, 7]: 112 days | Observed Days, Total Days [1, 7]: 413 days | Observed Days Minus Expected Days ([1]; Total Observations (Days)): 98 days | Observed Days, Total Days ([1]; Total Observations (Days)): 2148 days | Mean Day of Death, Absolute Change ([1]; vs. vehicle): 3.7 | Mean Day of Death, Percent Change ([1]; vs. vehicle): 2.9% | Mean Day of Definitive Neurological Disease, Absolute Change ([1]; vs. vehicle): −1.2 | Mean Day of Definitive Neurological Disease, Percent Change ([1]; vs. vehicle): −1.0% | Total Days of Survival after Onset of Definitive Disease, Absolute Change ([1]; vs. vehicle): 4.9 days | Total Days of Survival after Onset of Definitive Disease, Percent Change ([1]; vs. vehicle): 39.2% | Total Days of Survival after Onset of Definitive Disease, Percent Change ([1]; vs. vehicle, listed as Sulfasalazine formulation): 39% | Decreased activation vs. vehicle treated SOD1 mice ([2]; Cervical, day 85, listed as Sulfasalazine formulation): significantly decreased microglial activation | Decreased activation vs. vehicle treated SOD1 mice ([2]; Cervical, day 85, listed as sulfasalazine formulation): Strong decrease (p < 0.01) | Decreased activation vs. vehicle treated SOD1 mice ([2]; Cervical, day 100, listed as Sulfasalazine formulation): trend towards decreased microglial activation | Decreased activation vs. vehicle treated SOD1 mice ([2]; Cervical, day 100, listed as sulfasalazine formulation): Trend | Decreased activation vs. vehicle treated SOD1 mice ([2]; Combined, day 85): Trend | Decreased activation vs. vehicle treated SOD1 mice ([2]; Combined, day 100): No decrease | Decreased activation vs. vehicle treated SOD1 mice ([2]; Lumbar, day 85, listed as Sulfasalazine formulation): reduced microglial activation | Decreased activation vs. vehicle treated SOD1 mice ([2]; Lumbar, day 85, listed as sulfasalazine formulation): Trend | Decreased activation vs. vehicle treated SOD1 mice ([2]; Lumbar, day 100, listed as Sulfasalazine formulation): did not affect such activation | Decreased activation vs. vehicle treated SOD1 mice ([2]; Lumbar, day 100, listed as sulfasalazine formulation): No decrease | Decreased activation vs. vehicle treated SOD1 mice ([2]; Thoracic, day 85): No decrease | Decreased activation vs. vehicle treated SOD1 mice ([2]; Thoracic, day 100): No decrease | time plasma levels above 10 μg/ml were maintained [3]: approximately 7 hours | accumulation of disability ([4]; P-MS subgroup): statistically significant reduction in their accumulation of disability | disease progression ([4]; RR-MS sub-group): did not slow disease progression
